Results taken from patent US11155555B2, “Compounds” (Janssen Pharmaceutica NV, priority 2015, dated 2021).

How the values were obtained:
[1] = biological target: T1, FGFR1 (Homo sapiens, UniProt P11362); assay: KINOMEscan enzyme binding assay FGFR1; details: KINOMEscan (DiscoveRx); pKd = -log Kd, Kd in M
T1 construct: purchased DiscoveRx Corporation (assay service)
Protocol: (§1) Enzyme Binding Assays (KINOMEscan®) Kinase enzyme binding affinities of compounds disclosed herein were determined using the KINOMEscan® technology performed by DiscoveRx Corporation, San Diego, Calif., USA (www.kinomescan.com). Table A2 reports the obtained pKd values, with Kd (M) being the inhibitor binding constant value and with pKd being −log Kd: […]

[2] = biological target: T2, FGFR2 (Homo sapiens, UniProt P21802); assay: KINOMEscan enzyme binding assay FGFR2; details: KINOMEscan (DiscoveRx); pKd = -log Kd, Kd in M
T2 construct: purchased DiscoveRx Corporation (assay service)
Protocol: as §1

[3] = biological target: T3, FGFR3 (Homo sapiens, UniProt P22607); assay: KINOMEscan enzyme binding assay FGFR3; details: KINOMEscan (DiscoveRx); pKd = -log Kd, Kd in M
T3 construct: purchased DiscoveRx Corporation (assay service)
Protocol: as §1

[4] = biological target: T4, FGFR4 (Homo sapiens, UniProt P22455); assay: KINOMEscan enzyme binding assay FGFR4; details: KINOMEscan (DiscoveRx); pKd = -log Kd, Kd in M
T4 construct: purchased DiscoveRx Corporation (assay service)
Protocol: as §1

[5] = biological target: T5, VEGFR2 (Homo sapiens, UniProt P35968); assay: KINOMEscan enzyme binding assay VEGFR2; details: KINOMEscan (DiscoveRx); pKd = -log Kd, Kd in M
T5 construct: purchased DiscoveRx Corporation (assay service)
Protocol: as §1

T5 sequence (P35968 20-1356): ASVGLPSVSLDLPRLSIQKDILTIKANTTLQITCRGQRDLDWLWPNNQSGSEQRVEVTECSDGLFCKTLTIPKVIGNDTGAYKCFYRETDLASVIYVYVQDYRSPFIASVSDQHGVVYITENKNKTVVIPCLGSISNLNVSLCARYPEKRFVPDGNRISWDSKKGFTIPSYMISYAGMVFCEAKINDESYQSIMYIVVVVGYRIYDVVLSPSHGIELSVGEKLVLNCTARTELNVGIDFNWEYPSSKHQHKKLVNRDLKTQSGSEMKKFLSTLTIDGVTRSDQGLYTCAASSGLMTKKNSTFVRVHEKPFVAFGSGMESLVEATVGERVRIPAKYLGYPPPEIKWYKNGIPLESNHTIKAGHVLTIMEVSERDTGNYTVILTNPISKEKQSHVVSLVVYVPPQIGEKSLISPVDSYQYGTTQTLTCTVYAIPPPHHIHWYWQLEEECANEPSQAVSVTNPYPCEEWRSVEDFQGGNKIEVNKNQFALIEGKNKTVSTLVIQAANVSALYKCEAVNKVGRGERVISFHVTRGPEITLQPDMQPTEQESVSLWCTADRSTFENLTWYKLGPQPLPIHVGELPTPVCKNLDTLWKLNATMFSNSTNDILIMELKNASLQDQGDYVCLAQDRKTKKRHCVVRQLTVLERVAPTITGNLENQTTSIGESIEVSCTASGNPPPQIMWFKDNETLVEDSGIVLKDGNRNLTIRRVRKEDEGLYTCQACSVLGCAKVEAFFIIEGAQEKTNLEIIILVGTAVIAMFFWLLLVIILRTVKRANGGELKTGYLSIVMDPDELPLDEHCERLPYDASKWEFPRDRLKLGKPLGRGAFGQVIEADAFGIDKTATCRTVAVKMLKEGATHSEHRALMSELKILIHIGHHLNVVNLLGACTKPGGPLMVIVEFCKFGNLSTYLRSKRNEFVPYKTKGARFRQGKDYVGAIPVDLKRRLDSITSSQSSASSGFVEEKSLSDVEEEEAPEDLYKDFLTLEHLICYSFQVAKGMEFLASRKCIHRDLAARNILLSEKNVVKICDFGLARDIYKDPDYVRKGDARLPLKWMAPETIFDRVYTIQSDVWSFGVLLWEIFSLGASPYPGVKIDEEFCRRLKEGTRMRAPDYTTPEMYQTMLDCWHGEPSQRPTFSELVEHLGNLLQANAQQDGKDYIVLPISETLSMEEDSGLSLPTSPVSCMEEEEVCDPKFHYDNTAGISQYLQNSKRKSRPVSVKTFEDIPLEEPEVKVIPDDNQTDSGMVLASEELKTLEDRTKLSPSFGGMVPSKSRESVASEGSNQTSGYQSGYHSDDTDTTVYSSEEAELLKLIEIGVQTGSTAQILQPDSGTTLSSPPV
T4 sequence (P22455 22-802): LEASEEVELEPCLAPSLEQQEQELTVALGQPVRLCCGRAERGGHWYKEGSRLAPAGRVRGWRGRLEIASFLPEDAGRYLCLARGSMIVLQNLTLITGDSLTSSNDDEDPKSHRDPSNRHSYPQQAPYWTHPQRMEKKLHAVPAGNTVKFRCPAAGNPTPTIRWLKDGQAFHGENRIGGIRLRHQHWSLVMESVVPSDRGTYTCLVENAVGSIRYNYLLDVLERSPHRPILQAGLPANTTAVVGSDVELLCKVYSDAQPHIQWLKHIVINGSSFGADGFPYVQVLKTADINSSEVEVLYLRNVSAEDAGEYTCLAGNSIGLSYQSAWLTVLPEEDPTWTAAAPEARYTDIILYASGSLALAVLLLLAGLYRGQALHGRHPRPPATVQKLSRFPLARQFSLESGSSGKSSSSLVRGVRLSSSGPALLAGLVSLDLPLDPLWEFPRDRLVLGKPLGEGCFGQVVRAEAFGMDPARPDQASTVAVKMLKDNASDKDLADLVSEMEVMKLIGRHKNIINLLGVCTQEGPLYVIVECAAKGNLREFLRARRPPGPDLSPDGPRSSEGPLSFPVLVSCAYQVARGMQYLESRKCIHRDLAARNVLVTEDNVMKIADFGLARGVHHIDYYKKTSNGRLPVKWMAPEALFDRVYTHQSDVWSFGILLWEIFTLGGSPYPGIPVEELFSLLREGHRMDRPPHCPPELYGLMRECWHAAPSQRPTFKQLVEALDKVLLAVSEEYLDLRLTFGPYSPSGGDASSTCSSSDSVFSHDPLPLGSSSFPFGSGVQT
T2 sequence (P21802 22-821): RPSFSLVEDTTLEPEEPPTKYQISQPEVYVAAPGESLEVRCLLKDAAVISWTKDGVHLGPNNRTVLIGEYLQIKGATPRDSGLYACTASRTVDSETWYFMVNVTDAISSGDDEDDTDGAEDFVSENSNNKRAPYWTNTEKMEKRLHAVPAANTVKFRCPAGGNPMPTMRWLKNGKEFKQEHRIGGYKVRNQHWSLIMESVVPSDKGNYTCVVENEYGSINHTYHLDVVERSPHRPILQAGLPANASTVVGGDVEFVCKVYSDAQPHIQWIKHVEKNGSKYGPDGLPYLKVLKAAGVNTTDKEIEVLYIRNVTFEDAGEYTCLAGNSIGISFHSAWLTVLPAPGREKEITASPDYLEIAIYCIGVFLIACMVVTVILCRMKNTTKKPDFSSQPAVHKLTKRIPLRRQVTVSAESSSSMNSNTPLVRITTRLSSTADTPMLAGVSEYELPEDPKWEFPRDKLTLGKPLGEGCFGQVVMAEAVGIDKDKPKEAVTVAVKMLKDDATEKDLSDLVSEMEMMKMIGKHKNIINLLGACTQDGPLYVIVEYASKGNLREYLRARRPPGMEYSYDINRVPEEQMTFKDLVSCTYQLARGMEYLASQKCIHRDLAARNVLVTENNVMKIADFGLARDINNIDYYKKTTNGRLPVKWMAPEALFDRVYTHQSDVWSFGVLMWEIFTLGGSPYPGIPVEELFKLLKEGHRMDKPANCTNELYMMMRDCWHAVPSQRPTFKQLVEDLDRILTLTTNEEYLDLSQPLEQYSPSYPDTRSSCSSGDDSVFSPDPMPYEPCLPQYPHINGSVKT
T1 sequence (P11362 22-822): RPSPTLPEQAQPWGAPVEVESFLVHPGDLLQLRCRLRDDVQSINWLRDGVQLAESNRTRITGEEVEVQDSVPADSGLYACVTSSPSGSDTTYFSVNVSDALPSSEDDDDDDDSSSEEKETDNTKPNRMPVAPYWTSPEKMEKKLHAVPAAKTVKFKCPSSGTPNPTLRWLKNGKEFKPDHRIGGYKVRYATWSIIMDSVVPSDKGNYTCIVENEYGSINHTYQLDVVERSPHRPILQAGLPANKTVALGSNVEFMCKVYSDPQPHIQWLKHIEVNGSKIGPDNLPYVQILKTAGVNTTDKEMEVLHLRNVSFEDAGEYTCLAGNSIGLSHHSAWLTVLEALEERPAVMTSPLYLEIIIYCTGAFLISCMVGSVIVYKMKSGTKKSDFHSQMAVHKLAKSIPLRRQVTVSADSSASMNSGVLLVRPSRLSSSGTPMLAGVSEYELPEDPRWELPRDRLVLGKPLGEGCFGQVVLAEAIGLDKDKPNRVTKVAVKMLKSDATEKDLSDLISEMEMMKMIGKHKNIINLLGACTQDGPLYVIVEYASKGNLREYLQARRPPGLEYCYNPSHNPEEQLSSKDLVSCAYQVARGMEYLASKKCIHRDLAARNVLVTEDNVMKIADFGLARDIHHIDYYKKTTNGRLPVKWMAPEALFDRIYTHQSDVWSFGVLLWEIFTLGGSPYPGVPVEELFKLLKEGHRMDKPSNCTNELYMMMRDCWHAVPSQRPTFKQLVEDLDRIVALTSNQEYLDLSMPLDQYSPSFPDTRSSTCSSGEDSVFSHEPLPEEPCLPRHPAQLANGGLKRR
T3 sequence (P22607 23-806): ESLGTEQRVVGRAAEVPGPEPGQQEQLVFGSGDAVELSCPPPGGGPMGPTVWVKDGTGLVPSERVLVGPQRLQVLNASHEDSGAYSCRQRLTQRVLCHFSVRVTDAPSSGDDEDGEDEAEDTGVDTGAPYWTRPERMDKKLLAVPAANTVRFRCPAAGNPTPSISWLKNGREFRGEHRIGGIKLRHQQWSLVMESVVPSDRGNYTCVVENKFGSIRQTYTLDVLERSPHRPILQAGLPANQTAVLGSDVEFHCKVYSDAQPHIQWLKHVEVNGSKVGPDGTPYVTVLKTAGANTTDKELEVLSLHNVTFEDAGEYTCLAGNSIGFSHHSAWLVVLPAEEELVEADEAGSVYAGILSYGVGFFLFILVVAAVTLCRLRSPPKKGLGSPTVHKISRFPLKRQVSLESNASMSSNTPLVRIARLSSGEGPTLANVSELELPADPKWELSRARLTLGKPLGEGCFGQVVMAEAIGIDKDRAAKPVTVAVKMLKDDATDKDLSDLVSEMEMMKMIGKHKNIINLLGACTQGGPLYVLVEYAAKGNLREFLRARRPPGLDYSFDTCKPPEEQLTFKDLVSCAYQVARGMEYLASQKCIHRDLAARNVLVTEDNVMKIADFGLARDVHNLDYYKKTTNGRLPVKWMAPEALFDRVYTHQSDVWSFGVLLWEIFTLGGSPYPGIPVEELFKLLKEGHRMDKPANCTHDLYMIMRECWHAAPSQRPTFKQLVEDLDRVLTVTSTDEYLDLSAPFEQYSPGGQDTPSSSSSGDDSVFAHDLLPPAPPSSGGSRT

Row | SMILES | Kd [1] [nM] | Kd [2] [nM] | Kd [3] [nM] | Kd [4] [nM] | Kd [5] [nM] | melting point [°C]
1 | COc1cc(O)cc(N2CCN(C(C)C)Cc3c2ccc2ncc(-c4cnn(C)c4)nc32)c1F [Compound 11] | 3.89 | 44.7 | 8.91 | 60.3 | 123 | 
2 | COc1cc(OC)c(F)c(N2CCN(C(C)C)Cc3c2ccc2ncc(-c4cnn(C)c4)cc32)c1 [Compound 2] | 1.48 | 6.03 | 4.17 | 8.91 | 93.3 | 
3 | COc1cc(OC)c(Cl)c(N2CCN(C(C)C)Cc3c2ccc2ncc(-c4cnn(C)c4)nc32)c1Cl [Compound 5] | 7.24 | 26.9 | 14.1 | 77.6 | 263 | 
4 | COc1cc(OC)c(F)c(N2CCN(C(C)C)Cc3c2ccc2ncc(-c4cnn(C)c4)cc32)c1F [Compound 12] | 3.09 | 19.5 | 10.7 | 38 | 115 | 
5 | COc1cc(OC)c(F)c(N2CCN(C(C)C)Cc3c2ccc2ncc(-c4cnn(C)c4)nc32)c1 [Compound 1] | 0.794 | 4.27 | 2.4 | 11 | 45.7 | 166
6 | COc1cc(OC)c(Cl)c(N2CCN(C(C)C)Cc3c2ccc2ncc(-c4cnn(C)c4)nc32)c1 [Compound 4] | 2.09 | 19.1 | 7.41 | 27.5 | 58.9 | 
7 | CC(C)N1CCN(c2cc(O)cc(O)c2F)c2ccc3ncc(-c4cnn(C)c4)nc3c2C1 [Compound 9] | 977 | > 3020 | > 3020 | > 3020 | > 3020 | 
8 | COc1cc(OC)c(F)c(N2CCN(C(C)C)Cc3c2ccc2ncc(-c4cn[nH]c4)cc32)c1 [Compound 16] | 2.29 | 39.8 | 7.94 | 18.2 | 275 | 
9 | COc1cc(OC)c(F)c(N2CCN(C(C)C)Cc3c2ccc2ncc(-c4cn[nH]c4)nc32)c1 [Compound 3] | 1.55 | 11.7 | 5.5 | 15.8 | 70.8 | 
